Experimental data reported in US5726156A, “Cytokine regulatory agents and methods of use in pathologies and conditions associated with altered cytokine levels” (Trega Biosciences, Inc., priority 1995, dated 1998).

Columns and labels:
IL-10 = test: Increasing levels of IL-10 in human plasma; format: in vivo; conditions: for increase of plasma IL-10: healthy male volunteers
Protocol: EX-2 was administered by intravenous infusion to eight healthy male volunteers in doses of either 200 or 500 ug/kg. Plasma IL-10 levels increased in two of four volunteers after administration at 200 ug/kg EX-2 (FIG. 3a) and in four of four volunteers after administration of 500 ug/kg EX-2 (FIG. 3b).

[1] = test system: LPS-induced PMN infiltration in lungs; test: Adult respiratory distress syndrome: LPS-induced PMN count in broncho-alveolar lavage; format: in vivo, rats; conditions: 100 μg/kg IP; broncho-alveolar lavage 6 hr after intratracheal LPS
Protocol: These experiments were performed using a modification of the methods described by Ulich et al., Am. J. Pathol. 141:61-68 (1992) and by Wheelden et al., Lab. Animals 26:29-37 (1992), each of which is incorporated herein by reference. Male Harlan Sprague-Dawley rats were anesthetized using a mixture of 70 mg/kg ketamine and 6 mg/kg rompun injected IP. A 2-3 cm incision was made in the neck of each anesthetized rat and its trachea was exposed by blunt dissection of the surrounding soft tissue. The rats were suspended on a near vertical slab and intratracheal injections were performed by inserting into the exposed trachea, at a point 1 cm posterior to the larynx, a 25G×1/2 inch needle attached to a 1 cc syringe.
Each rat received 0.5 ml/kg of saline or 0.5 ml/kg of 10 mg/ml (5 mg/kg) LPS endotoxin via slow intratracheal administration. Immediately following administration of the LPS endotoxin, rats were injected IP with 1 ml/kg of either saline (control) or saline containing various concentrations of EX-2 (treated). The rats were maintained in the elevated position for 1-2 min to facilitate distribution of the LPS and saline into the lung. The incisions were closed and the rats were allowed to recover. […]
The total polymorphonuclear leukocytes (PMN; neutrophits) in the broncho-alveolar lavage fluid were counted in the EX-2-treated rats and compared with the number in the control rats.

TNF-α = test: Reduction of LPS-induced TNF levels in mice (IP dosing); format: in vivo; conditions: 30 μg/mouse IP, one min before LPS 5 mg/kg IP; vs untreated control mice
Protocol: Balb/c female mice weighing approximately 20 g were placed into two groups, a control group and a treated group. Five mg/kg of LPS in 0.9% saline was administered by intraperitoneal (IP) injection into the control mice. Mice in the treated group were first injected IP with 30 μg EX-2 or 150 μg EX-3 in saline, then, one min after EX-2 or EX-3 was administered, the mice received LPS as described for the control group.
Blood samples were collected from the orbital sinus of treated and control mice at various times up to four hr after LPS was administered. The plasma was separated by centrifugation at 3000×g for 5 min, then diluted with four volumes of 1× phosphate buffer saline (pH 7.4) containing 1% bovine serum albumin. A 100 μl sample of serum was assayed by ELISA for TNF-α (Genzyme; Cambridge Mass.).
The mean (+/- SEM) TNF-α level in six mice from each group was determined and the percent reduction in TNF levels was calculated.

LPS-induced fever = test: LPS-induced temperature increase (fever); format: in vivo, rats; conditions: 6 hr following LPS injection
Protocol: (§1) Male Wistar rats (45-75 days old) were placed in a temperature controlled room held at 26° C., which is thermoneutral for the normal body temperature of rats, and were maintained in the room with free access to food and water for 24 hr prior to testing. On the morning of the study, rats were marked for identification and weighed. The temperature of each rat was determined by placing the animal in a regulatory cage designed to minimize stress and inserting a temperature probe (YSI probe #402) 3-5 cm into the animal's rectum. The temperature was recorded 15 sec after the reading stabilized. Measurements were repeated 1 hr later to establish a baseline temperature for each rat.
(§2) After the baseline temperatures were established, rats were injected IP with saline, IL-1β or LPS endotoxin. Rats then were injected IP with either saline (control) or various concentrations of EX-2, EX-3, or EX-4 (treated). The temperature of the rats was measured every hr for 6 hr and the inhibition by EX-2, EX-3, or EX-4 of the rise in temperature due to IL-1β or LPS was determined.
(§3) In addition, treatment with 50 or 150 μg/kg EX-2 inhibited LPS-induced fever by 45% or 52%, respectively, when measured 6 hr following LPS injection. Furthermore, treatment with 150 μg/kg EX-3 or EX-4 inhibited LPS-induced fever by 57% and 52%, respectively (Table II).

IL-1-induced fever = test: IL-1β-induced temperature increase (fever); format: in vivo, rats; conditions: 500 μg/kg IP
Protocol: as §1, §2, §3

[2] = test system: IL-1β-induced hyperalgesia; test: IL-1β-induced hyperalgesia, paw pressure test; format: in vivo, rats; design: dose or concentration left out as unconfirmed; conditions: IP 20 min before IL-1β intraplantar; 2 hr after IL-1
Protocol: These experiments were performed using a modification of the methods described by Poole etal., Br. J. Pharmacol. 106:489-492 (1992); Foilenfant et al., Br. J. Pharmacol. 98:41-43 (1989); and Randall and Sellito, Arch. Internatl. Pharmacodyn. 111:409-419 (1957), each of which is incorporated herein by reference. Adult male Sprague-Dawley rats (175-275 g) were tested for hyperalgesia by a paw pressure technique using variable pressure instrumentation (IITC Life Sciences; Woodland Hills, Calif.). Rats were acclimated to the housing environment and were handled for three days prior to beginning a training session. On the day before the hyperalgesia experiments was to begin, each rat was placed into a sock and two variable paw pressure tests were performed 15 min apart. […] Approximately 5-10% of the rats were non-responders and were eliminated from further experiments.
Animals that responded to the paw pressure were pretreated by IP injection of various concentrations of EX-2 in a volume of 1 ml/kg (treated) or saline, alone (control). After 20 min, 100 μl of IL-1β (1U/100 μl) was administered to rats via intra plantar injection. Two hr after IL-1 administration, rats were subjected to two additional paw pressure tests and the increase in mm Hg of pressure that could be applied to the EX-2-treated rats as compared to the control rats was determined.

## Ac-Nle-Gln-His-(D)Phe-Arg-(D)Trp-Gly-NH2 [EX-2]
IL-10; 200 ug/kg intravenous infusion
  volunteers in whom plasma IL-10 levels increased: two of four
  increase of plasma IL-10: 85%
IL-10; 500 ug/kg intravenous infusion
  volunteers in whom plasma IL-10 levels increased: four of four
  increase of plasma IL-10: 230%
[1]
  Reduction in LPS-induced PMN Count: 58%
TNF-α
  Reduction in TNF levels: 50%
LPS-induced fever; 50 μg/kg IP
  Reduction in LPS-induced Fever: 45%
LPS-induced fever; 150 μg/kg IP
  Reduction in LPS-induced Fever: 52%
IL-1-induced fever
  Reduction in IL-1-induced Fever: 52%
[2]
  Reduction in IL-1-induced Hyperalgesia (increase in tolerated paw pressure): 125%
